According to ChEMBL document CHEMBL5131473, “One-pot synthesis of oxoaporphines as potent antitumor agents and investigation of their mechanisms of actions” (Eur J Med Chem, 2022):
The source made the active and inactive calls. No cut-off for these calls is given here.

Columns and labels:
T-24 [1] = experiment: Induction of mitochondrial membrane potential dysfunction in human T24 cells assessed as shrinking mitochondria at 10 uM incubated for 24 hrs by TEM analysis; assay type: functional, cell-based
T-24 [2] = experiment: Induction of apoptosis in human T24 cells assessed as increase in caspase 9 activity at 15 uM (Rvb= 7.2%); assay type: functional
T-24 [3] = experiment: Induction of cell cycle arrest in human T24 cells assessed as accumulation of cells at S phase at 15 uM incubated for 24 hrs by propidium iodide/RNase A staining based flow cytometry analysis (reference value: 42.47 %); assay type: functional
T-24 [4] = experiment: Induction of mitochondrial membrane potential dysfunction in human T24 cells assessed as decrease in ATP production at 15 uM; assay type: functional; set-up: scale not given: the % may be the effect or the level left
[5] = Toxicity in human WI-38 cells assessed as wound closure at 5 uM measured after 24 hrs by fluorescence microscopy based wound healing assay; assay type: cell-based; details: wi-38, 24 h
T-24 [6] = experiment: Induction of apoptosis in human T24 cells assessed as late apoptotic cells at 10 uM incubated for 24 hrs by Annexin-V/PI staining based flow cytometry analysis (reference value: 0.543 %); assay type: functional
T-24 [7] = experiment: Induction of mitochondrial mediated apoptosis in human T24 cells assessed as increase in Bak protein expression at 10 to 15 uM incubated for 24 hrs by Western blotting analysis; assay type: functional, cell-based; details: dose 10-15 µM
T-24 [8] = experiment: Induction of apoptosis in human T24 cells assessed as condensation of nuclei at 10 uM by Hoechst33258 staining based fluorescence microscopy; assay type: functional, cell-based
T-24 [9] = experiment: Induction of cell cycle arrest in human T24 cells assessed as accumulation of cells at G1 phase at 15 uM incubated for 24 hrs by propidium iodide/RNase A staining based flow cytometry analysis (reference value: 51.71 %); assay type: functional
T-24 [10] = experiment: Induction of cell cycle arrest in human T24 cells assessed as accumulation of cells at S phase at 10 uM incubated for 24 hrs by propidium iodide/RNase A staining based flow cytometry analysis (reference value: 42.47 %); assay type: functional
T-24 [11] = experiment: Induction of apoptosis in human T24 cells assessed as condensed chromatin at 10 uM by Hoechst33258 staining based fluorescence microscopy; assay type: functional, cell-based
T-24 [12] = experiment: Induction of apoptosis in human T24 cells assessed as viable cells at 10 uM incubated for 24 hrs by Annexin-V/PI staining based flow cytometry analysis (reference value: 94.3 %); assay type: functional; details: read-out: Activity
T-24 [13] = experiment: Induction of mitochondrial mediated apoptosis in human T24 cells assessed as decrease in Bcl-2 protein expression at 10 to 15 uM incubated for 24 hrs by Western blotting analysis; assay type: functional, cell-based; details: dose 10-15 µM
T-24 [14] = experiment: Induction of apoptosis in human T24 cells assessed as necrotic cells at 1 uM incubated for 24 hrs by Annexin-V/PI staining based flow cytometry analysis (reference value: 1.92 %); assay type: functional
T-24 [15] = experiment: Induction of mitochondrial Ca2+ production in human T24 cells assessed as increase in intracellular Ca2+ concentration at 0.5 uM by Rhod2-AM staining based fluorescence microscopic method; assay type: functional, cell-based
T-24 [16] = experiment: Induction of cell cycle arrest in human T24 cells assessed as increase in CDK1 expression at 0.5 to 1 uM incubated for 24 hrs by chemiluminescence based Western blotting analysis; assay type: functional; details: dose 0.5-1 µM, DDE = dose-dependent effect
T-24 [17] = experiment: Induction of apoptosis in human T24 cells assessed as early apoptotic cells at 1 uM incubated for 24 hrs by Annexin-V/PI staining based flow cytometry analysis (reference value: 3.27 %); assay type: functional
T-24 [18] = experiment: Induction of mitochondrial membrane potential dysfunction in human T24 cells assessed as increase in fragmentation at 0.5 uM incubated for 24 hrs by TEM analysis; assay type: functional, cell-based
T-24 [19] = experiment: Induction of mitochondrial ROS generation in human T24 cells at 0.5 uM measured after 24 hrs by DCFH-DA staining based confocal microscopy method; assay type: functional, cell-based
T-24 [20] = experiment: Induction of mitochondrial membrane potential dysfunction in human T24 cells assessed as decrease in ATP production at 1 uM; assay type: functional; set-up: scale not given: the % may be the effect or the level left
T-24 [21] = experiment: Induction of DNA damage in human T24 cells assessed as increase in gamma H2AX phosphorylation at 2 uM incubated for 24 hrs by Hoechst33258 staining based immunofluorescence assay; assay type: functional, cell-based
T-24 [22] = experiment: Induction of mitochondrial membrane potential dysfunction in human T24 cells assessed as depolarised cells at 2 uM incubated for 24 hrs by JC-1 staining based flow cytometry (reference value: 6.20%); assay type: functional
T-24 [23] = experiment: Induction of ROS accumulation in human T24 cells assessed as increase in intracellular ROS level at 2 uM by […] based flow cytometry; assay type: functional, cell-based
T-24 [24] = experiment: Induction of cell cycle arrest in human T24 cells assessed as accumulation of cells at G2/M phase at 2 uM incubated for 24 hrs by propidium iodide/RNase A staining based flow cytometry analysis (reference value: 5.82 %); assay type: functional
T-24 [25] = experiment: Induction of apoptosis in human T24 cells assessed as necrotic cells at 6 uM incubated for 24 hrs by Annexin-V/PI staining based flow cytometry analysis (reference value: 1.92 %); assay type: functional
T-24 [26] = experiment: Induction of ROS generation in human T24 cells at 2 uM by fluorescence microscopy; assay type: functional, cell-based
T-24 [27] = experiment: Induction of apoptosis in human T24 cells assessed as increase in caspase 3 activity at 4 uM (Rvb= 3.1%); assay type: functional
T-24 [28] = experiment: Induction of mitochondrial membrane potential dysfunction in human T24 cells assessed as shrinking mitochondria at 2 uM incubated for 24 hrs by TEM analysis; assay type: functional, cell-based

O=C1c2ccccc2-c2cccc3ccnc1c23
Activity (T-24 [1]): Active | Activity (T-24 [2]): 26.3% | Activity (T-24 [3]): 46.29% | Activity (T-24 [4]): 66.2% | Activity [5]: Non-Toxic | Activity (T-24 [6]): 3.25% | Activity (T-24 [7]): Active | Activity (T-24 [8]): Active | Activity (T-24 [9]): 31.02% | Activity (T-24 [10]): 54.86% | Activity (T-24 [11]): Active | viability at 10 µM (T-24 [12]): 79.1% | Activity (T-24 [13]): Active

O=C1c2ccccc2-c2ccc([N+](=O)[O-])c3ccnc1c23
Activity (T-24 [14]): 1.57% | Activity (T-24 [15]): Active | Activity (T-24 [16]): Dde | Activity (T-24 [17]): 39.5% | Activity (T-24 [18]): Active | Activity (T-24 [19]): Active | Activity (T-24 [20]): 47.3%

O=C1c2cc([N+](=O)[O-])ccc2-c2ccc([N+](=O)[O-])c3ccnc1c23
Activity (T-24 [21]): Active | Activity (T-24 [22]): 15.9% | Activity (T-24 [23]): Active | Activity (T-24 [24]): 33.02% | Activity (T-24 [25]): 3.14% | Activity (T-24 [26]): Active | Activity (T-24 [27]): 28% | Activity (T-24 [28]): Active
